Here are results for one compound from patent publication US8324280B2, “Treatment of prostate cancer with DDC inhibitor” (The University of British Columbia, priority 2008, dated 2012).

One assay has as its system DU 145. Conditions: cited from earlier work.
Assay [1] deals with pure neuroendocrine tumour. Conditions: in combination with other drugs; implanted prostate NE cancer cells; cited from earlier work.
Another assay deals with C4-2 cells. Kind of assay: MTS cell proliferation assay, androgen-independent C4-2 cells. The following applies: 25 μM. Format: cell-based, human. The procedure:
Cell proliferation assays were performed using the 3-(4,5-dimethylhiazol-2-yl)-5-(3-carboxymethoxyphenyl)-2-(4-sulfophenyl)-2H-tetrazolium Assay (MTS) according to the manufacturer's protocol, with minor modifications (Promega). C4-2 cells were plated in 96-well plates at a density of 750 cells per well in RPMI medium containing 5% CSS for 1 day. On the following day, the DDC inhibitors, carbidopa (25 μM) and NSD-1015 (10 μM)±0.1 nM R1881 were added to each well in charcoal-stripped serum (CSS; Hyclone, VWR) RPMI media. The cells were harvested at days 0, 2, 4, and 6, with a medium change every 3 days. Each time point was measured with 6 replicates.
(§1) Student's t-test (two-sample equal variance) was used to evaluate statistically significant differences. All calculated p-values were two-sided and those less than 0.05 were considered statistically significant.
A general note: Formazan colour is commonly taken as a measure of viable cells.

A further assay deals with LNCaP cells. Kind of assay: MTS cell proliferation assay, androgen-dependent LNCaP cells. It is filed as cell-based, human. The following applies: 50 μM. The procedure: Cell proliferation assays were performed using the 3-(4,5-dimethylhiazol-2-yl)-5-(3-carboxymethoxyphenyl)-2-(4-sulfophenyl)-2H-tetrazolium Assay (MTS) according to the manufacturer's protocol, with minor modifications (Promega). LNCaP cells were plated in 96-well plates at a density of 3000 cells per well and incubated in RPMI medium containing 5% CSS for one day. On the following day, the DDC inhibitors, carbidopa (25 and 50 μM) and NSD-1015 (10 μM)±0.1 nM R1881 were added to each well in charcoal-stripped serum (CSS; Hyclone, VWR) RPMI media. The cells were harvested at days 0, 2, 4, 6 and 8, with a medium change every 3 days. Each time point was measured with 6 replicates.
as §1

Assay [2] deals with LNCaP-Vector control xenografts. Kind of assay: LNCaP-Vector control tumour xenografts with carbidopa treatment. Format: in vivo, mice. The following applies: 25 mg/kg intraperitoneally daily, Dox, endogenous DDC only. The procedure: LNCaP-DDC and LNCaP-Vector control cells were inoculated subcutaneously (s.c.), after resuspension in 0.1 mL of Matrigel (Becton Dickinson Labware), into two flank regions (2.5×10^6 cells/site) of 6 to 8 week old male athymic nude mice (Harlan Sprague Dawley, Inc.) via a 27-gauge needle under halothane anesthesia. Tumour volume and serum PSA measurements (blood collected from the tail vein) were performed once per week after tumours became palpable. PSA levels were measured by ELISA (ClinPro International) and tumour size was calculated by the formula; length×width×depth×0.5236. Once serum PSA values reached 75-100 ng/mL, mice in both the LNCaP-DDC and LNCaP-Vector control groups were given Dox-treated water (200 μg/mL) and treated with or without carbidopa. Carbidopa was purchased from Sigma and dissolved in DMSO. The solution was diluted in PBS to a final concentration of 10% DMSO and sterilized through a 0.2 μm filter. Carbidopa solution was injected intraperitoneally into half of the mice (25 mg per kg of body weight) for the +carbidopa groups, while the remaining mice received vehicle injections consisting of 10% DMSO in PBS (−carbidopa groups). Injections were carried out daily for the duration of the experiment. […] PSA velocity and tumour growth rate differences were determined by one-way ANOVA and Tukey's multiple comparison test. […]

In the case of `C[C@@](Cc1ccc(O)c(O)c1)(NN)C(=O)O` [carbidopa, α-Methyl-dopahydrazine], the effect on proliferation result in the assay with DU 145 is reported as “did not affect proliferation”. Further, the “reduction of tumour growth” value in assay [1] was 40%. In addition, the “reduction of number of cells relative to control non-treated cells” value in the assay with C4-2 cells (day 6, absence of androgen) is given as 1.58 fold; with C4-2 cells (day 6, presence of androgen (0.1 nM R1881)), 1.80 fold; in the assay with LNCaP cells (day 8, absence of androgen), 1.42 fold; in the assay with LNCaP cells (day 8, presence of androgen (0.1 nM R1881)), 1.69 fold. For the same compound, the “PSA velocity (rate of PSA production)” value in assay [2] (over 35 days) is 7.2±1. The tumour growth rate in assay [2] (over 49 days) is recorded as 9.8±2.
